Measured values taken from patent US9783510B2, “Small molecule mediated transcriptional induction of E-cadherin” (Vanderbilt University, priority 2014, dated 2017).

Columns and labels:
[1] = IV pharmacokinetics in Sprague-Dawley rats; assay type: in vivo; conditions: IV dosing
Description: The potency and efficacy of Compound 13 was evaluated in vivo. For these studies, the pharmacokinetics of Compound 13 were first evaluated in vitro and in vivo (FIG. 14).

[2] = test system: E-cadherin mRNA in SW620inv cells; experiment: qPCR of E-cadherin specific mRNA, SW620inv cells; assay type: cell-based; conditions: 10 μM, 6 hours post-treatment, relative to DMSO
HEp3 cells = experiment: E-cadherin mRNA, protein and histone marks in HEp3 cells; assay type: cell-based, Human; conditions: by 6 hours after treatment, compared with Compound 124 treatment
Description: To determine if Compound 13 restores E-cadherin in HEp3 cells, the effect of Compound 13 treatment on E-cadherin mRNA expression was tested. Compound 13 induced an 8-fold increase in E-cadherin mRNA by 6 hours after treatment in the […] compared with Compound 124 treatment (FIG. 15C). Not only E-cadherin specific mRNA, but also E-cadherin protein, was induced by Compound 13 treatment (FIG. 15D).
Avian embryos were treated with Compound 124 (266Y) or Compound 13 (259Y) 24 hours after intravenous injection of GFP-expressing HEp3 cells. The formation of metastatic colonies was monitored visually by a fluorescent stereoscope at 50× magnification. Representative images are shown, scale bar=500 μm (15A). Colony diameter was quantified at 6 days post injection. The data represent a total of 30 embryos from two independent experiments: 12 treated with Compound 124 (266Y) and 18 treated with Compound 13 (259Y). […] Each data point on the scatterplot represents the geometric mean diameter of 6-10 colonies analyzed per embryo (15B). Relative E-cadherin mRNA expression in HEp3 cells following 6 hours treatment with either Compound 124 (266Y) or Compound 13 (259Y) is shown (15C). Western blot showing E-cadherin protein re-expression in HEp3 cells following treatment with DMSO, Compound 124 (266Y), or Compound 13 (259Y) for 24 hours is shown (15D). […]

[3] = test system: E-cadherin expression in SW620 cells; experiment: E-cadherin expression, in-cell Western (ICW), SW620 cells; assay type: cell-based; conditions: Homo sapiens
Procedure, shortened: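 SW620 cells were treated with compound for 24 h in RPMI 1640 (single-point at 10 μM; EC50 also determined), in quadruplicate. After methanol fixation, in-cell Western with anti-E-cadherin and anti-α-tubulin primaries and IRDye 800/700 secondaries. Read on an Odyssey IR imager.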

[4] = test system: E-cadherin mRNA in H520 cells; experiment: qPCR of E-cadherin specific mRNA, H520 cells; assay type: cell-based; conditions: H520, 10 μM, 6 hours post-treatment, relative to DMSO
[5] = test system: proximal region of the E-cadherin promoter (Cdh1) in SW620inv cells; experiment: ChIP assay at proximal E-cadherin promoter, SW620inv cells; assay type: cell-based
[6] = SW620inv, ChIP, 10 μM vs DMSO (FIG. 7C)

O=C(NCCCNC(=O)c1cccnc1O)c1cc(-c2ccccc2)on1 [Compound 13, N-(3-(2-hydroxynicotinamido)propyl)-5-phenylisoxazole-3-carboxamide]
clearance [1]: moderate
elimination half-life [1]: long
volume of distribution [1]: moderate
increase of E-cadherin specific mRNA [2]: 27 fold
increase in E-cadherin mRNA (HEp3 cells): 8 fold
fold induction at 10 µM ([3]; SW-620, 24 h, change in expression level of E-cadherin in response to 10 μM compound, 24 hours, SW620 cells): 5.23
EC50 ([3]; SW-620, inducement of E-cadherin expression in SW620 cells): 4.1 µM
increase of E-cadherin specific mRNA [4]: 20 fold
Pol II association with the E-cadherin proximal promoter ([5]; ChIP (FIG. 8)): 3.7 fold
enriched binding of H3K4me3 at the E-cadherin promoter [5, 6]: 2.1 fold
enriched binding of H3K9Ac at the E-cadherin promoter [5, 6]: 3.4 fold
enriched binding of Pol II at the E-cadherin promoter [5, 6]: 4.6 fold
